Data: patent publication US10450297B2, “Sulfonyl amide derivatives for the treatment of abnormal cell growth” (Pfizer, Inc., priority 2007, dated 2019)
pIC50: −log10 of the molar value.

Molecular target: FAK kinase (catalytic construct FAK(410-689)) (Homo sapiens (Human), UniProt Q05397)
Test: FAKcd kinase ELISA (inhibition of poly-glu-tyr phosphorylation by FAK(410-689))
Assay type: biochemical
Settings: 50 μM final ATP

FAK kinase (catalytic construct FAK(410-689)), sequence (Q05397 410-689): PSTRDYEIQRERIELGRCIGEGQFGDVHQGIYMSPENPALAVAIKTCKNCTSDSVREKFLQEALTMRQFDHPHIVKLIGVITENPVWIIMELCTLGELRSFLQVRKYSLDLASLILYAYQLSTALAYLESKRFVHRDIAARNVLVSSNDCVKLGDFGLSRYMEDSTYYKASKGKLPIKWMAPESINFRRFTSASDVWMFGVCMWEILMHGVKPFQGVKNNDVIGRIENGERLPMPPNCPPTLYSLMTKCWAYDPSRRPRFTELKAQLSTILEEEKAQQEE

| Structure (SMILES) | pIC50 |
| --- | --- |
| CN(c1ncccc1CNc1nc(Nc2cccc(CO)c2)ncc1C(F)(F)F)S(C)(=O)=O [Compound 283, N-[3-({[2-{[3-(hydroxymethyl)phenyl]amino}-5-(trifluoromethyl)pyrimidin-4-yl]amino}methyl)pyridin-2-yl)-N-methylmethane-sulfonamide] | 9.22 |
| CN(c1ncccc1CNc1nc(Nc2ccc(OC(F)(F)F)cc2)ncc1C(F)(F)F)S(C)(=O)=O [Compound 284, N-methyl-N-[3-({[2-{[4-(trifluoromethoxy)phenyl]amino}-5-(trifluoromethyl)pyrimidin-4-yl]amino}rnethyl)pyridin-2-yl]methanesulfonamide] | 8.74 |
| CN(c1ncccc1CNc1nc(Nc2ccncc2)ncc1C(F)(F)F)S(C)(=O)=O [Compound 285, N-methyl-N-[3-({[2-(pyridin-4-ylamino)-5-(trifluoromethyl)pyrimidin-4-yl]amino}methyl)pyridin-2-yl]methanesulfonamide] | 8.90 |
| CN(c1ncccc1CNc1nc(Nc2cccc(C#N)c2)ncc1C(F)(F)F)S(C)(=O)=O [Compound 286, N-{3-[({2-[(3-cyanophenyl)amino]-5-(trifluoromethyl)pyrimidin-4-yl}amino)methyl]pyridin-2-yl}-N-methylmethanesulfonamide] | 8.79 |
| Cc1cccc(NS(C)(=O)=O)c1CNc1nc(Nc2ccc(-c3nnn[nH]3)cc2)ncc1C(F)(F)F [Compound 287, N-[3-methyl-2-({[2-{[4-(1H-tetrazol-5-yl)phenyl]amino}-5-(trifluoromethyl)pyrimidin-4-yl]amino}methyl)phenyl]methanesulfonamide] | 8.71 |
| Cc1cc(Nc2ncc(C(F)(F)F)c(NCc3cccnc3N(C)S(C)(=O)=O)n2)on1 [Compound 289, N-methyl-N-{3-[({2-[(3-methylisoxazol-5-yl)amino)-5-(trifluoromethyl)pyrimidin-4-yl}amino)methyl]pyridin-2-yl}methanesulfonamide] | 7.74 |
| CN(c1ncccc1CNc1nc(Nc2ccc(N3CCOCC3)cc2)ncc1C(F)(F)F)S(C)(=O)=O [Compound 291, N-methyl-N-{3-[({2-[(4-morpholin-4-ylphenyl)amino]-5-(trifluoromethyl)pyrimidin-4-yl}amino)methyl]pyridin-2-yl}methanesulfonamide] | > 9.23 |
| CN(c1ncccc1CNc1nc(Nc2ccc(C#N)nc2)ncc1C(F)(F)F)S(C)(=O)=O [Compound 292, N-{3-[({2-[(6-cyanopyridin-3-yl)amino]-5-(trifluoromethyl)pyrimidin-4-yl}amino)methyl]pyridin-2-yl}-N-methylmethane-sulfonamide] | 7.63 |
| CN(c1ncccc1CNc1nc(Nc2ccc(N3CCOCC3)cn2)ncc1C(F)(F)F)S(C)(=O)=O [Compound 293, N-methyl-N-{3-[({2-[(5-morpholin-4-ylpyridin-2-yl)amino]-5-(trifluoromethyl)pyrimidin-4-yl}amino)methyl]pyridin-2-yl]methanesulfonamide] | > 9.23 |
| Cc1ccc(CNc2nc(Nc3cccc(C(N)=O)c3)ncc2C(F)(F)F)c(N(C)S(C)(=O)=O)n1 [Compound 294, 3-({4-[({6-methyl-2-[methyl(methylsulfonyl)amino]pyridin-3-yl}methyl)amino]-5-(trifluoromethyl)pyrimidin-2-yl}amino)benzamide] | > 9.23 |
| CN(c1cccnc1CNc1nc(Nc2cccc(C(N)=O)c2)ncc1C(F)(F)F)S(C)(=O)=O [Compound 295, 3-({4-[({3-[methyl(methylsulfonyl)amino]pyridin-2-yl}methyl)amino]-5-(trifluoromethyl)pyrimidin-2-yl}amino)benzamide] | 8.88 |
| Cc1ncc(CNc2nc(Nc3cccc(C(N)=O)c3)ncc2C(F)(F)F)c(N(C)S(C)(=O)=O)n1 [Compound 296, 3-({4-[({2-methyl-4-[methyl(methylsulfonyl)amino]pyrimidin-5-yl}methyl)amino]-5-(trifluoromethyl)pyrimidin-2-yl}amino)benzamide] | 8.41 |
| CN(c1nccnc1CNc1nc(Nc2cccc(C(N)=O)c2)ncc1C(F)(F)F)S(C)(=O)=O [Compound 297, 3-({4-[({3-[melhyl(methylsulfonyl)amino]pyrazin-2-yl}methyl)amino]-5-(trifluoromethyl)pyrimidin-2-yl}amino)benzamide] | 8.65 |
| CN(c1ncccc1CNc1nc(Nc2nccc(N)n2)ncc1C(F)(F)F)S(C)(=O)=O [Compound 298, N-{3-[({2-[(4-aminopyrimidin-2-yl)amino]-5-(trifluoromethyl)pyrimidin-4-yl}amino)methyl]pyridin-2-yl}-N-methylmethane-sulfonamide] | 7.48 |
| CN(c1ncccc1CNc1nc(Nc2ccnc(N)n2)ncc1C(F)(F)F)S(C)(=O)=O [Compound 299, N-{3-[({2-[(2-aminopyrimidin-4-yl)amino]-5-(trifluoromethyl)pyrimidin-4-yl}amino)methyl]pyridin-2-yl}-N-methylmethane-sulfonamide] | < 6.73 |
| CN(c1ncccc1CNc1nc(Nc2ccc(CNS(=O)(=O)C(F)(F)F)cc2)ncc1C(F)(F)F)S(C)(=O)=O [Compound 302, 1,1,1-trifluoro-N-[4-({4-[({2-[methyl(methylsulfonyl)amino]pyridin-3-yl}methyl)amino]-5-(trifluoromethyl)pyrimidin-2-yl}amino)benzyl]methanesulfonamide] | 9.00 |
| CN(c1ncccc1CNc1nc(Nc2cccc(CNS(=O)(=O)C(F)(F)F)c2)ncc1C(F)(F)F)S(C)(=O)=O [Compound 303, 1,1,1-trifluoro-N-[3-({4-[({2-[methyl(methylsulfonyl)amino]pyridin-3-yl}methyl)amino]-5-(trifluoromethyl)pyrimidin-2-yl}amino)benzyl]methanesulfonamide] | 9.14 |
| COc1ccc(C(N)=O)cc1Nc1ncc(C(F)(F)F)c(NCc2cccnc2N(C)S(C)(=O)=O)n1 [Compound 304, 4-methoxy-3-({4-[({2-[methyl(methylsulfonyl)amino]pyridin-3-yl}methyl)amino]-5-(trifluoromethyl)pyrimidin-2-yl}amino)benzamide] | 9.11 |
| COc1ccc(C(N)=O)cc1Nc1ncc(C(F)(F)F)c(NCc2ccc(C)nc2N(C)S(C)(=O)=O)n1 [Compound 305, 4-methoxy-3-({4-[({6-methyl-2-[methyl(methylsulfonyl)-amino]pyridin-3-yl}methyl)amino]-5-(trifluoromethyl)pyrimidin-2-yl}amino)benzamide] | 9.19 |
| COc1ccc(C(N)=O)cc1Nc1ncc(C(F)(F)F)c(NCc2ncccc2N(C)S(C)(=O)=O)n1 [Compound 306, 4-methoxy-3-({4-[({3-[methyl(methylsulfonyl)amino]pyridin-2-yl}methyl)amino]-5-(trifluoromethyl)pyrimidin-2-yl}amino)benzamide] | 9.16 |
| COc1ccc(C(N)=O)cc1Nc1ncc(C(F)(F)F)c(NCc2nccnc2N(C)S(C)(=O)=O)n1 [Compound 307, 4-methoxy-3-({4-[({3-[methyl(methylsulfonyl)amino)pyrazin-2-yl}methyl)amino]-5-(trifluoromethyl)pyrimidin-2-yl}amino)benzamide] | 8.95 |
| Cc1ccc(C(N)=O)cc1Nc1ncc(C(F)(F)F)c(NCc2nccnc2N(C)S(C)(=O)=O)n1 [Compound 309, 4-methyl-3-({4-[({3-[methyl(methylsulfonyl)amino]pyrazin-2-yl}methyl)amino]-5-(trifluoromethyl)pyrimidin-2-yl}amino)benzamide] | 8.45 |
